Reference: publication PMC8196580, “Identification of Kaurane-Type Diterpenes as Inhibitors of Leishmania Pteridine Reductase I” (Molecules, 2021)
Like-named read-outs stand apart in the source and are kept apart here.

Assays:
[1] = test system: L. major; assay: ChEMBL dataset of pIC50 values against L. major used for the RF model (Table S1); assay type: cell-based, Leishmania major; also: call rule not given here
[2] = test system: L. major; parameters: method as in ChEMBL; settings: ref ChEMBL, cited from earlier work
[3] = Active/Inactive class assigned to ChemBL structures for Random forest model construction (Table S1)
[4] = ChemBL structures with pIC50 values used for Random forest model construction (Table S1)
[5] = Active/Inactive class assigned to the ChEMBL pIC50 value for Random forest model construction, ref ChEMBL
[6] = ChemBL structures with pIC50 values used for Random forest model construction, L. major

SMILES | Outcome [1, 3] | pIC50 Value [2, 4] | Outcome [1, 5] | pIC50 Value [2, 6]
COc1ccc2c(c1)C=C(/C=C/C(=O)c1ccc(Cl)c(Cl)c1)CO2 [CHEMBL3329270] | Active | 6.00 | – | –
CC(C)C1=CC(=O)C2=C(CC[C@H]3C(C)(C)CCC[C@]23C)C1=O [CHEMBL3355361] | Active | 6.74 | – | –
CC[C@H](CO)Nc1nc(NCc2cccc(C)c2O)c2ncn(C(C)C)c2n1 [CHEMBL3423079] | – | – | Inactive | 4.70
CC[C@H](CO)Nc1nc(NCc2cc(C)ccc2O)c2ncn(C(C)C)c2n1 [CHEMBL3423080] | Active | 5.64 | – | –
CC[C@H](CO)Nc1nc(NCc2ccc(Br)cc2)c2ncn(C(C)C)c2n1 [CHEMBL3423090] | – | – | Inactive | 4.71
CCN(CC)NC(=O)c1ccc(OCc2ccccc2)cc1 [CHEMBL3613383] | – | – | Inactive | 4.68
c1ccc(-c2nc3cnccn3c2-c2ccccc2)cc1 [CHEMBL3634350] | – | – | Inactive | 4.58
COc1ccc(-c2c(-c3ccccc3)nc3cnccn23)cc1 [CHEMBL3634351] | – | – | Inactive | 4.76
O=[N+]([O-])c1ccc(-c2c(-c3ccccc3)nc3cnccn23)cc1 [CHEMBL3634352] | – | – | Inactive | 4.56
CCOC(=O)c1ccc(-c2c(-c3ccccc3)nc3cnccn23)cc1 [CHEMBL3634353] | – | – | Inactive | 4.76
Clc1cccc(-c2c(-c3ccccc3)nc3cnccn23)c1 [CHEMBL3634354] | – | – | Inactive | 4.84
Clc1cc(Cl)cc(-c2c(-c3ccccc3)nc3cnccn23)c1 [CHEMBL3634355] | – | – | Inactive | 4.99
c1ccc(-c2nc3cnccn3c2-c2ccncc2)cc1 [CHEMBL3634356] | – | – | Inactive | 4.70
CN(C)CCNc1nccn2c(I)c(-c3ccccc3)nc12 [CHEMBL3634357] | – | – | Inactive | 4.62
CN(C)c1nccn2c(I)c(-c3ccccc3)nc12 [CHEMBL3634358] | – | – | Active | 5.17
Ic1c(-c2ccccc2)nc2c(NCCN3CCOCC3)nccn12 [CHEMBL3634359] | – | – | Inactive | 4.97
CN(C)CCNc1nccn2c(I)c(-c3ccc(F)cc3)nc12 [CHEMBL3634360] | – | – | Inactive | 4.61
CN(C)c1nccn2c(I)c(-c3ccc(F)cc3)nc12 [CHEMBL3634361] | – | – | Inactive | 4.00
Fc1ccc(-c2nc3c(NCCN4CCOCC4)nccn3c2I)cc1 [CHEMBL3634362] | Active | 5.55 | – | –

SMILES | Outcome [1, 3] | pIC50 Value [2, 4] | Outcome [1, 5] | pIC50 Value [2, 6]
CN(C)CCNc1nccn2c(-c3ccncc3)c(-c3ccccc3)nc12 [CHEMBL3634363] | – | – | Inactive | 4.16
CN(C)c1nccn2c(-c3ccncc3)c(-c3ccccc3)nc12 [CHEMBL3634364] | – | – | Inactive | 4.50
c1ccc(-c2nc3c(NCCN4CCOCC4)nccn3c2-c2ccncc2)cc1 [CHEMBL3634365] | – | – | Inactive | 4.63
CN(C)CCNc1nccn2c(-c3ccncc3)c(-c3ccc(F)cc3)nc12 [CHEMBL3634366] | – | – | Inactive | 4.45
CN(C)c1nccn2c(-c3ccncc3)c(-c3ccc(F)cc3)nc12 [CHEMBL3634367] | – | – | Active | 5.19
Fc1ccc(-c2nc3c(NCCN4CCOCC4)nccn3c2-c2ccncc2)cc1 [CHEMBL3634368] | – | – | Inactive | 4.78
Nc1ccc2ncnc(Nc3ccc(OCc4cccc(F)c4)c(Cl)c3)c2c1 [CHEMBL3637893] | – | – | Inactive | 4.98
O=C(CN1CCOCC1)Nc1ccc2ncnc(Nc3ccc(OCc4cccc(F)c4)c(Cl)c3)c2c1 [CHEMBL3637894] | – | – | Inactive | 4.91
CN1CCN(S(=O)(=O)c2ccc(-c3ccc4c(Nc5ncc(Cl)cn5)ccnc4c3)cc2)CC1 [CHEMBL3637895] | – | – | Active | 5.07
COc1cc(OC)c2c(C)[n+](-c3ccccc3)c(C)cc2c1.[O-][Cl+3]([O-])([O-])[O-] [CHEMBL3706858] | – | – | Inactive | 4.58
COc1cc(OC)c2c(C)[n+](-c3ccccc3)c(C)cc2c1.[Cl-] [CHEMBL3706859] | – | – | Inactive | 4.33
C=C[C@H]1CN2CCc3c([nH]c4ccccc34)[C@@H]2C[C@@H]1C(/C=C/OC)C(=O)OC (stereo partly drawn) [CHEMBL3752140] | Active | 5.52 | – | –
Cc1ccc(Nc2ncnc3ccc([N+](=O)[O-])cc23)cc1C [CHEMBL3758240] | – | – | Inactive | 4.45
O=C(CCl)N1c2ccccc2Oc2ccc(Cl)cc21 [CHEMBL3758242] | – | – | Active | 5.12
O=C(C(Cl)CCl)N1c2ccccc2Oc2ccccc21 (stereo not drawn) [CHEMBL3758248] | – | – | Active | 5.02
O=C(CCl)N1c2ccccc2C=Cc2ccccc21 [CHEMBL3758271] | – | – | Inactive | 4.32
COc1ccccc1Nc1ncnc2ccc([N+](=O)[O-])cc12 [CHEMBL3758369] | Active | 5.36 | – | –
O=C(CCl)N1c2ccccc2COc2ccc(Cl)cc21 [CHEMBL3758404] | – | – | Active | 5.14
Cc1ccc(Cl)cc1Nc1ncnc2ccc([N+](=O)[O-])cc12 [CHEMBL3758550] | – | – | Inactive | 4.35

SMILES | Outcome [1, 3] | pIC50 Value [2, 4] | Outcome [1, 5] | pIC50 Value [2, 6]
COc1ccc(OC)c(Nc2ncnc3ccc([N+](=O)[O-])cc23)c1 [CHEMBL3758611] | – | – | Inactive | 4.91
O=[N+]([O-])c1ccc2ncnc(Nc3ccccc3Cl)c2c1 [CHEMBL3758623] | – | – | Active | 5.19
N#CCC(=O)N1c2ccccc2Oc2ccccc21 [CHEMBL3758694] | – | – | Inactive | 4.00
CSc1ccc(Nc2ncnc3ccc([N+](=O)[O-])cc23)cc1 [CHEMBL3758748] | Active | 5.73 | – | –
O=C(CCCl)N1c2ccccc2Oc2ccc(Cl)cc21 [CHEMBL3759105] | – | – | Inactive | 4.80
O=C(CCl)N1c2cc(Cl)ccc2Oc2ccc(Cl)cc21 [CHEMBL3759123] | – | – | Active | 5.02
Cc1ccc(Nc2ncnc3ccc([N+](=O)[O-])cc23)cc1 [CHEMBL3759143] | – | – | Inactive | 4.62
O=C(CBr)N1c2ccccc2Oc2ccc(Cl)cc21 [CHEMBL3759174] | – | – | Inactive | 4.00
O=C(CCCCl)N1c2ccccc2Oc2ccc(Cl)cc21 [CHEMBL3759213] | – | – | Inactive | 4.00
O=C(CCl)N1c2ccccc2Oc2ccc(C(F)(F)F)cc21 [CHEMBL3759243] | – | – | Active | 5.02
O=C(C(Cl)Cl)N1c2ccccc2Oc2ccccc21 [CHEMBL3759299] | – | – | Inactive | 4.09
ClCCN1c2ccccc2Oc2ccc(Cl)cc21 [CHEMBL3759618] | – | – | Inactive | 4.00
O=C(CCl)Nc1cc(Cl)ccc1Oc1ccccc1 [CHEMBL3759632] | – | – | Inactive | 4.37
CCc1ccc(Nc2ncnc3ccc([N+](=O)[O-])cc23)cc1 [CHEMBL3759644] | – | – | Inactive | 4.42
CC(Cl)C(=O)N1c2ccccc2Oc2ccccc21 (stereo not drawn) [CHEMBL3759769] | – | – | Inactive | 4.00
O=C(CCCl)N1c2ccccc2Oc2ccccc21 [CHEMBL3759988] | – | – | Inactive | 4.41
CSc1cccc(Nc2ncnc3ccc([N+](=O)[O-])cc23)c1 [CHEMBL3760067] | – | – | Inactive | 4.70
O=[N+]([O-])c1ccc2ncnc(Nc3ccc(Br)cc3)c2c1 [CHEMBL3760107] | – | – | Inactive | 4.21
CC1=C(C(=O)/C=C/c2cccc([N+](=O)[O-])c2)C(c2ccccc2)NC(=O)N1C (stereo not drawn) [CHEMBL3785174] | Active | 5.71 | – | –
